Reference: publication PMC8872362, “Balanced Polymorphism at the Pgm-1 Locus of the Pompeii Worm Alvinella pompejana and Its Variant Adaptability Is Only Governed by Two QE Mutations at Linked Sites” (Genes, 2022)
Where two headings read alike, the source gives them in different places.

System: PGM-1 (recombinant isoform PGM100, E155 E190)
Assay: G6PD-coupled NADPH assay, Lineweaver-Burk
Format: biochemical, Alvinella pompejana
Details: 50 mM Tris-HCl pH 7.4, 0.5 M MgCl2 (so in the source), 1.2 mM NADP, 0.1 µM G6PD, G1P 0.2-60 mM, 17 °C
Description: G6PD-coupled NADPH assay, Lineweaver-Burk on PGM-1 (recombinant isoform PGM100, E155 E190)

With `O=P(O)(O)O[C@H]1O[C@H](CO)[C@@H](O)[C@H](O)[C@H]1O` [G1P, α-D-glucose 1-phosphate] the Km (PGM78, natural allele QE, read-out: PGM 78 / 1st Transition) was 0.76 ± 0.07 mM, the Km (PGM90, natural allele EQ, read-out: PGM 90 / 1st Transition) was 6.25 ± 0.35 mM and the Km (read-out: PGM 100 / 1st Transition) was 5.22 ± 0.74 mM.
